Laboratory results published in paper PMC7407272, “Induction of Lysosome Membrane Permeabilization as a Therapeutic Strategy to Target Pancreatic Cancer Stem Cells” (Cancers, 2020).

Assays:
[1] = molecular target: T1, EPHA7 (Homo sapiens, UniProt Q15375); experiment: KINOMEscan; format: binding; conditions: read-out: % Ctrl
T1 construct: purchased DiscoveRx KINOMEscan

[2] = molecular target: T2, FLT3(D835Y) (Homo sapiens, UniProt P36888, D835Y); experiment: KINOMEscan; format: binding; conditions: read-out: % Ctrl
T2 construct: purchased DiscoveRx KINOMEscan

[3] = molecular target: T3, PKMYT1 (Homo sapiens, UniProt Q99640); experiment: KINOMEscan; format: binding; conditions: read-out: % Ctrl
T3 construct: purchased DiscoveRx KINOMEscan

[4] = molecular target: T4, TYRO3 (Homo sapiens, UniProt Q06418); experiment: KINOMEscan; format: binding; conditions: read-out: % Ctrl
T4 construct: purchased DiscoveRx KINOMEscan

[5] = molecular target: T5, ITK (Homo sapiens, UniProt Q08881); experiment: KINOMEscan; format: binding; conditions: read-out: % Ctrl
T5 construct: purchased DiscoveRx KINOMEscan

[6] = molecular target: T6, NEK11 (Homo sapiens, UniProt Q8NG66); experiment: KINOMEscan; format: binding; conditions: read-out: % Ctrl
T6 construct: purchased DiscoveRx KINOMEscan

[7] = molecular target: T7, TGFBR1 (Homo sapiens, UniProt P36897); experiment: KINOMEscan; format: binding; conditions: read-out: % Ctrl
T7 construct: purchased DiscoveRx KINOMEscan

[8] = molecular target: T8, p38-gamma (Homo sapiens, UniProt P53778); experiment: KINOMEscan; format: binding; conditions: read-out: % Ctrl
T8 construct: purchased DiscoveRx KINOMEscan
T8 sequence (P53778 whole entry): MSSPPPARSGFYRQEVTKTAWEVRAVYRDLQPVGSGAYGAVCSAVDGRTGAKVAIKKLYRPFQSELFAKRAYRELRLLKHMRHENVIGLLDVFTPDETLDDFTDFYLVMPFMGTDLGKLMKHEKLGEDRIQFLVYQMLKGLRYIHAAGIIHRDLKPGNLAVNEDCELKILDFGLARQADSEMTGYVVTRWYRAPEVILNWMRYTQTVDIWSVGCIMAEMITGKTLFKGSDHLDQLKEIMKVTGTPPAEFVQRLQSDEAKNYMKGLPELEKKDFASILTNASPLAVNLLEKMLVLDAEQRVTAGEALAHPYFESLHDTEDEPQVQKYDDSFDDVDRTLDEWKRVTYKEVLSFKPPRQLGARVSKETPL

[9] = molecular target: T9, MAP4K5 (Homo sapiens, UniProt Q9Y4K4); experiment: KINOMEscan; format: binding; conditions: read-out: % Ctrl
T9 construct: purchased DiscoveRx KINOMEscan

[10] = molecular target: T10, LZK (Homo sapiens, UniProt O43283); experiment: KINOMEscan; format: binding; conditions: read-out: % Ctrl
T10 construct: purchased DiscoveRx KINOMEscan

[11] = molecular target: T11, KIT (Homo sapiens, UniProt P10721); experiment: KINOMEscan; format: binding; conditions: read-out: % Ctrl
T11 construct: purchased DiscoveRx KINOMEscan
T11 sequence (P10721 26-976): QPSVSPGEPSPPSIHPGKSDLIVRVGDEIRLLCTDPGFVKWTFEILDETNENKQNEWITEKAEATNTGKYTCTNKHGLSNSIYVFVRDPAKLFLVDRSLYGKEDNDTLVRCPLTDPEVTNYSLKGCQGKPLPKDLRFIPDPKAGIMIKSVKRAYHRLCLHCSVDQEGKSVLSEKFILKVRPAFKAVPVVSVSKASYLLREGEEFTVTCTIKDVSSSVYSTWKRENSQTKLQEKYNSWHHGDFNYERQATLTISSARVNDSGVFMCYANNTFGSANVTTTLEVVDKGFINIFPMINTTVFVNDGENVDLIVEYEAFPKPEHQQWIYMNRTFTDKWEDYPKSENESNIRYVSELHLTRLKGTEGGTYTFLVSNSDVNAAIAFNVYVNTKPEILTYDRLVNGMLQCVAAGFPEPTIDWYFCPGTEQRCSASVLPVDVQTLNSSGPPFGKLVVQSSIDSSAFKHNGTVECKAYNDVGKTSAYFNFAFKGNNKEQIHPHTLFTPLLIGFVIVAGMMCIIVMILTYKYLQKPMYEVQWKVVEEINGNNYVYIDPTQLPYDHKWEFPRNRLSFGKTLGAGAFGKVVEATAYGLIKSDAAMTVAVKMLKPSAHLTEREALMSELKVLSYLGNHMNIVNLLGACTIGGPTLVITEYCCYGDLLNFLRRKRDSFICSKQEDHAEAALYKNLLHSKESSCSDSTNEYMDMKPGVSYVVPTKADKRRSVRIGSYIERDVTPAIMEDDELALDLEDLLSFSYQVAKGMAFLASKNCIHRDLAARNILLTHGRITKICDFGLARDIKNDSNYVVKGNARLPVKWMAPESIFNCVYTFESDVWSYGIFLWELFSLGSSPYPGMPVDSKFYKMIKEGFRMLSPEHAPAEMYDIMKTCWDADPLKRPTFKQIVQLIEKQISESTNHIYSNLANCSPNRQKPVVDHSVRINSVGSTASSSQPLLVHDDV

[12] = molecular target: T12, TRKB (Homo sapiens, UniProt Q16620); experiment: KINOMEscan; format: binding; conditions: read-out: % Ctrl
T12 construct: purchased DiscoveRx KINOMEscan
T12 sequence (Q16620 32-822): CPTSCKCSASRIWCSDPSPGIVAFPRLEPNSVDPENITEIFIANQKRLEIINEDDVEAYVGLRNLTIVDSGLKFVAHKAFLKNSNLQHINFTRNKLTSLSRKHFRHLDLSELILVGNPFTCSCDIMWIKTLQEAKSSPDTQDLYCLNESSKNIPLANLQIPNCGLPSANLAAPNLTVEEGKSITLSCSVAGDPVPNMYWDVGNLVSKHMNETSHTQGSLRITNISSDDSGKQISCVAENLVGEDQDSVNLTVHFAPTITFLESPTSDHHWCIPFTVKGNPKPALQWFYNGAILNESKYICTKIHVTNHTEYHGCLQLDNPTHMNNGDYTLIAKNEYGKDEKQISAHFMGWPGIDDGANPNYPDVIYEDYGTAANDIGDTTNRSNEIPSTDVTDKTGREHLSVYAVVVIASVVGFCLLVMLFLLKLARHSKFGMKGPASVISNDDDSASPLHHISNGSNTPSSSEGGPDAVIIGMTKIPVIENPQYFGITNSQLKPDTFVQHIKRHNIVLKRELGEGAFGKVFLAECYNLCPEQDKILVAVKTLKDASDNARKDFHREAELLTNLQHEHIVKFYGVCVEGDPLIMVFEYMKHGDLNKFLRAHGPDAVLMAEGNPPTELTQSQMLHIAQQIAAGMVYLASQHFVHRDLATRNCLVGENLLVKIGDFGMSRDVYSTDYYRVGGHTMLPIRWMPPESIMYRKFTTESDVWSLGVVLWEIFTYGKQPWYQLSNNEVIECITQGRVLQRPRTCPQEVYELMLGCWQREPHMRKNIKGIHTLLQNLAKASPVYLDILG

[13] = molecular target: T13, TYK2(JH1D.-cat.) (Homo sapiens, UniProt P29597); experiment: KINOMEscan; format: binding; conditions: read-out: % Ctrl
T13 construct: TYK2(JH1D.-cat.); purchased DiscoveRx KINOMEscan

[14] = molecular target: T14, WNK4 (Homo sapiens, UniProt Q96J92); experiment: KINOMEscan; format: binding; conditions: read-out: % Ctrl
T14 construct: purchased DiscoveRx KINOMEscan
T14 sequence (Q96J92 whole entry): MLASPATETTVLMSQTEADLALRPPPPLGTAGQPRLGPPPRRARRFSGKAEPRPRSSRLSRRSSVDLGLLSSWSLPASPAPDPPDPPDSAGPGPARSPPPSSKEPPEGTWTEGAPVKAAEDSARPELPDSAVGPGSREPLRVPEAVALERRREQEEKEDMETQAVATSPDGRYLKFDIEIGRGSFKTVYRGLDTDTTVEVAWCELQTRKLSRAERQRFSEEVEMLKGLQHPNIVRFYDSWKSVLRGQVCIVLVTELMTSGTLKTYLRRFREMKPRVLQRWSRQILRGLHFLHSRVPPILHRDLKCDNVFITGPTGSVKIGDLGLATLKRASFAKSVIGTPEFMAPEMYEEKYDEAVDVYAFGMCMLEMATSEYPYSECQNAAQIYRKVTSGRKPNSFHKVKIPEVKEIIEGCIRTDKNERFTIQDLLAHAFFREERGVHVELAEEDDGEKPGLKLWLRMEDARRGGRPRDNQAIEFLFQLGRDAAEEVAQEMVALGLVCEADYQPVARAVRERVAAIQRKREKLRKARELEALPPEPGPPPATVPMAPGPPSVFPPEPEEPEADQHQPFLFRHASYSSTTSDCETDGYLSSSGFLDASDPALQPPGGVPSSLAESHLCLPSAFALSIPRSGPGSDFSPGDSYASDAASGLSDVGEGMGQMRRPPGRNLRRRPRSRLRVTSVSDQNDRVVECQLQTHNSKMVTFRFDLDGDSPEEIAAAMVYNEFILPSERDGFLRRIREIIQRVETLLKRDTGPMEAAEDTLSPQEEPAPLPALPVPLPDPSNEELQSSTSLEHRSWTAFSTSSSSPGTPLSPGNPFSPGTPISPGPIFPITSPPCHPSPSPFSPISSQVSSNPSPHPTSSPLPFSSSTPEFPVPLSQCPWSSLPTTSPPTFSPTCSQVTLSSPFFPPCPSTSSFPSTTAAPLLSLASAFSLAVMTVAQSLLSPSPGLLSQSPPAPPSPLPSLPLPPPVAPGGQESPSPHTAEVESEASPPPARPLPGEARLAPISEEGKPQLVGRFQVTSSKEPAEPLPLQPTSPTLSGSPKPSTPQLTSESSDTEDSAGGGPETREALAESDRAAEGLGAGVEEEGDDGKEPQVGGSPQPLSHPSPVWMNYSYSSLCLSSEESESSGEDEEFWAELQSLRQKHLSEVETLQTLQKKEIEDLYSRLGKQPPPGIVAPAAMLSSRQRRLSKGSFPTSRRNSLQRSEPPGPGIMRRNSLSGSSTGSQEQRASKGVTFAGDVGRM

[15] = molecular target: T15, SIK2 (Homo sapiens, UniProt Q9H0K1); experiment: KINOMEscan; format: binding; conditions: read-out: % Ctrl
T15 construct: purchased DiscoveRx KINOMEscan

[16] = Pharmacokinetic study; format: in vivo; conditions: BALB/c mice
Procedure: Female BABL/c mice, 10 weeks old were used (n = 3 per time point). Compound 2 was formulated in 0.9% NaCl solution for both oral and intravenous (i.v.) injections. Plasma samples were collected following a single i.v. or oral administration of 8 mg/kg at 0.08, 0.16, 0.25, 0.5, 1, 4, 8 and 24 h. The extraction of Cpd 2 from plasma was achieved by solid phase extraction followed by high performance liquid chromatography/tandem mass spectrometry (Agilent 1100, Applied Biosystems API2000) analysis. The amount of inhibitor and the internal standard in each mouse plasma sample were quantified based on calibration curves generated using standards of known concentrations of compound. This assay method was sufficiently accurate for the quantification of Cpd 2 with a limit of detection (LOD) and a low limit of quantification (LLOQ) of 5 ng/mL. Pharmacokinetic parameters were estimated using WinNonlin Version 5.2 software (Pharsight Corp., Mountain View, CA, USA), by fitting both the experimental i.v and oral data to a bicompartimental model.

[17] = molecular target: T16, PIK3CA(H1047Y) (Homo sapiens, UniProt P42336, H1047Y); experiment: KINOMEscan; format: binding; conditions: read-out: % Ctrl
T16 construct: purchased DiscoveRx KINOMEscan

[18] = molecular target: T17, TIE2 (Homo sapiens, UniProt Q02763); experiment: KINOMEscan; format: binding; conditions: read-out: % Ctrl
T17 construct: purchased DiscoveRx KINOMEscan
T17 sequence (Q02763 23-1124): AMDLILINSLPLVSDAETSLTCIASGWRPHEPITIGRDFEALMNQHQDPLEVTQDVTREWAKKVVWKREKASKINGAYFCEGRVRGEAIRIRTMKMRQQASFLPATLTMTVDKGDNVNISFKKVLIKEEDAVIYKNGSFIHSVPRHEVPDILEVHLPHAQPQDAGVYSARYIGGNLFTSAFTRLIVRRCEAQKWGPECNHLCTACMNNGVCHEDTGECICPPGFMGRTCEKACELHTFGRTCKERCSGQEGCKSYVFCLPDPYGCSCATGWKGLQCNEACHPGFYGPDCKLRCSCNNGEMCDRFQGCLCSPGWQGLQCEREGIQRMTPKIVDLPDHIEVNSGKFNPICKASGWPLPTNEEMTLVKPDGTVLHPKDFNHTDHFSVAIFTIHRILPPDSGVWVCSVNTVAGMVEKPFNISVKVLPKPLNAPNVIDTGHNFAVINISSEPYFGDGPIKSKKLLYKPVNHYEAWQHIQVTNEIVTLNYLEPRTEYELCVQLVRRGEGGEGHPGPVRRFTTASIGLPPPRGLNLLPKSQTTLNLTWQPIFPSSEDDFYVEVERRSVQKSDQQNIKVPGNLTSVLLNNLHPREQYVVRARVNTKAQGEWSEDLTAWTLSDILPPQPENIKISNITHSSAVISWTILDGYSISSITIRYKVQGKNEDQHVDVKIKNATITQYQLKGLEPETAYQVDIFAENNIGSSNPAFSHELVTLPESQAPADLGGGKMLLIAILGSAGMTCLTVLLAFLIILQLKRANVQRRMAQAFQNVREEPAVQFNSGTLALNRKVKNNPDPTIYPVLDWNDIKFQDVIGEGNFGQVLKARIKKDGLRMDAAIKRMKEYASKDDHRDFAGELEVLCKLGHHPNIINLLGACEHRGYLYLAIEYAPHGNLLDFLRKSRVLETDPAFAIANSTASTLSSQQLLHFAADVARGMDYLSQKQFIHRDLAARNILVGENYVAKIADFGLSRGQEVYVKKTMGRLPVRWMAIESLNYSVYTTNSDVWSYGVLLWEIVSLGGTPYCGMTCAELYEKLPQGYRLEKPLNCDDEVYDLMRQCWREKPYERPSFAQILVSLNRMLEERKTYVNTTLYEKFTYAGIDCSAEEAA

[19] = molecular target: T18, CSNK1A1 (Homo sapiens, UniProt P48729); experiment: KINOMEscan; format: binding; conditions: read-out: % Ctrl
T18 construct: purchased DiscoveRx KINOMEscan

[20] = molecular target: T19, SBK1 (Homo sapiens, UniProt Q52WX2); experiment: KINOMEscan; format: binding; conditions: read-out: % Ctrl
T19 construct: purchased DiscoveRx KINOMEscan

[21] = test system: re-plated PDAC2 spheres; experiment: Acridine orange lysosomal integrity assay; format: cell-based, human
Procedure: Cells were analyzed with a 4-laser Attune NxT Acoustic Cytometer (ThermoFisher Scientific). […] Autofluorescent cells were excited with blue laser 488nm and selected as the intersection with the filters 530/40 and 580/30 as previously described. For lysosomes quantification, Acridine Orange (AO) (A1301, Thermo Fisher Scientific, Waltham, MA, USA) or Lysotracker Deep Red (DR) (L12492, Molecular probes, Life Technologies, Waltham, MA, USA) were used. […] Bafilomycin A1 (100 nM, Calbiochem, San Diego, CA, USA) was included as a positive control for lysosome disruption. For Annexin V staining, floating and attached cells were pooled and resuspended in 1× AnnexinV staining buffer containing AnnexinV-APC diluted 1:20 (Biotium, Freemont, CA, USA) and incubated for 20 min at room temperature prior to flow cytometric analysis. For all assays, DAPI was used to mark and exclude dead cells, and data were analyzed using the software FlowJo v9.3 (Tree Star Inc., Ashland, OR, USA).
Re-plated spheres were loaded with 1 µg/mL acridine orange (A1301, Thermo Fisher Scientific) for 15 min then washed 3 times with PBS. […]

[22] = molecular target: T20, KIT(V559D) (Homo sapiens, UniProt P10721, V559D); experiment: KINOMEscan; format: binding; conditions: read-out: % Ctrl
T20 construct: purchased DiscoveRx KINOMEscan
T20 sequence (P10721 26-976 V559D): as the sequence (P10721 26-976) above, with V534D counted along it

[23] = molecular target: T21, NEK2 (Homo sapiens, UniProt P51955); experiment: KINOMEscan; format: binding; conditions: read-out: % Ctrl
T21 construct: purchased DiscoveRx KINOMEscan

[24] = molecular target: T22, TESK1 (Homo sapiens, UniProt Q15569); experiment: KINOMEscan; format: binding; conditions: read-out: % Ctrl
T22 construct: purchased DiscoveRx KINOMEscan

[25] = molecular target: T23, PRKG1 (Homo sapiens, UniProt Q13976); experiment: KINOMEscan; format: binding; conditions: read-out: % Ctrl
T23 construct: purchased DiscoveRx KINOMEscan

[26] = molecular target: T24, MYLK2 (Homo sapiens, UniProt Q9H1R3); experiment: KINOMEscan; format: binding; conditions: read-out: % Ctrl
T24 construct: purchased DiscoveRx KINOMEscan
T24 sequence (Q9H1R3 whole entry): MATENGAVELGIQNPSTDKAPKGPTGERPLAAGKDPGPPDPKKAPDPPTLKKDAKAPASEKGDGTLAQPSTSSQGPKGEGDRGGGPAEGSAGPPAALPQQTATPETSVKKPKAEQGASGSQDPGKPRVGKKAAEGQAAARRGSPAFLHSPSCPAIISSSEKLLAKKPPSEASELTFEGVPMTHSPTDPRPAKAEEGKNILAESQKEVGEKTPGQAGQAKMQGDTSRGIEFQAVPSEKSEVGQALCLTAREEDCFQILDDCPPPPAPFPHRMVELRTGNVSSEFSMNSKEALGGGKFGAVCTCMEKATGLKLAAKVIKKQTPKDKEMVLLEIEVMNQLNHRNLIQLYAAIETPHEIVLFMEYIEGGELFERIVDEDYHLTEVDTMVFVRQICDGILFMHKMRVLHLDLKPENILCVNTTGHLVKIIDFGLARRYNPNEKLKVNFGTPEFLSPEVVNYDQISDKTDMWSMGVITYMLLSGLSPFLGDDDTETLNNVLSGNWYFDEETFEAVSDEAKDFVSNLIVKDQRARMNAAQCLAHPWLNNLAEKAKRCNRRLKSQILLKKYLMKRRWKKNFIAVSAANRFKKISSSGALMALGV

[27] = molecular target: T25, TAK1 (Homo sapiens, UniProt O43318); experiment: KINOMEscan; format: binding; conditions: read-out: % Ctrl
T25 construct: purchased DiscoveRx KINOMEscan

[28] = molecular target: T26, MAPKAPK5 (Homo sapiens, UniProt Q8IW41); experiment: KINOMEscan; format: binding; conditions: read-out: % Ctrl
T26 construct: purchased DiscoveRx KINOMEscan

[29] = molecular target: T27, TNK2 (Homo sapiens, UniProt Q07912); experiment: KINOMEscan; format: binding; conditions: read-out: % Ctrl
T27 construct: purchased DiscoveRx KINOMEscan

[30] = molecular target: T28, RSK3(KD2-C-t.) (Homo sapiens, UniProt Q15349); experiment: KINOMEscan; format: binding; conditions: read-out: % Ctrl
T28 construct: RSK3(KD2-C-t.); purchased DiscoveRx KINOMEscan

In the case of `CN1CCC(CNc2ccc3ncc(C(=O)Nc4cccc(OC(F)(F)F)c4)n3n2)CC1` [Cpd 2], the remaining binding at 1 µM [1] was 100%, the remaining binding at 1 µM [2] was 65% and the remaining binding at 1 µM [3] was 75%. It also gave a remaining binding at 1 µM [4] of 89%, a remaining binding at 1 µM [5] of 95% and a remaining binding at 1 µM [6] of 79%. The remaining binding at 1 µM [7] was 100%, the remaining binding at 1 µM [8] was 91% and the remaining binding at 1 µM [9] was 92%. It also gave a remaining binding at 1 µM [10] of 92%, a remaining binding at 1 µM [11] of 99% and a remaining binding at 1 µM [12] of 89%. The remaining binding at 1 µM [13] was 65%, the remaining binding at 1 µM [14] was 100% and the remaining binding at 1 µM [15] was 97%. For the same compound, the levels in plasma ([16]; after intravenous administration) was “low levels in plasma”, the clearance ([16]; intravenous administration) was over 100 % hepatic blood flow and the remaining binding at 1 µM [17] was 96%. The remaining binding at 1 µM [18] was 100%, the remaining binding at 1 µM [19] was 100% and the remaining binding at 1 µM [20] was 100%. The “Acridine Orange staining (LMP), fluorescence microscopy” value ([21]; 5 µM, 2 h) was “greatly reduced lysosomal staining in the far-red channel”, the “AO mean far-red fluorescence intensity (MFI), flow cytometry” value ([21]; 1.25, 2.5 or 5 µM, 6 h and 24 h) was “decreasing overall AO mean far-red fluorescence intensity” and the remaining binding at 1 µM [22] was 95%. For the same compound, the remaining binding at 1 µM [23] was 94%, the remaining binding at 1 µM [24] was 90% and the remaining binding at 1 µM [25] was 100%. The remaining binding at 1 µM [26] was 97%, the remaining binding at 1 µM [27] was 70% and the remaining binding at 1 µM [28] was 100%. The remaining binding at 1 µM [29] was 99% and the remaining binding at 1 µM [30] was 74%.
